# Results from patent publication US20090060984A1, “ANIONIC SURFACTANTS LETHAL TO GRAM-POSITIVE BACTERIA” (priority 2007, published 2009).
# Where “and” joins values, the source holds several entries; their conditions need not be identical. Equal values may be shown once. Read-outs that look alike come from different tables or passages of the source.
# Key:
# [1] = system: Serratia marcescens; test: Growth on surfactant/TSA agar plates; format: cell-based; settings: the one Gram-negative not resistant
# Experimental: This solution was then aliquoted into sterile petri dishes, approximately 25 mL per plate, and allowed to solidify. The organisms were grown in 5 mL of Trypticase Soy Broth. The sterile broth was inoculated with a single isolated colony from a stock culture and allowed to incubate in a shaking water bath at 37° C. for 8-10 hours. The estimated concentration was about 10^9 CFU/mL. Some plates were tested with a 1:100 dilution of these cultures to arrive at an approximate concentration of 10^7 CFU/mL. Then, 10 μL of each overnight culture was pipetted directly onto the surface of the surfactant/TSA plates, which were then allowed to incubate at 37° C. for 24 hours. Results were based on the presence or absence of bacterial growth on the surface of the agar.
# [2] = system: B. subtilis; test: Sodium surfactant polyurethane coated microscope slides, surviving bacteria; settings: for CFU/mL B. subtilis: 30% sodium surfactant polyurethane coated microscope slides, two data sets
# [3] = system: S. aureus; test: as above; settings: for CFU/mL S. aureus: 30% sodium surfactant polyurethane coated microscope slides, two data sets
# [4] = system: E. coli; format: cell-based, Escherichia coli; settings: 24 h contact time
# Experimental: Escherichia coli ATCC 11229 (Culti-loops, Remel Europe, Dartford, Kent, UK) and Pseudomonas aeruginosa ATCC 15442 (Cuti-loops, Remel Europe, Dartford, Kent, UK) were selected as model Gram-negative organisms for the challenge testing of the antimicrobial coatings. Each bacterial strain was streaked for isolated colonies on Tryptic Soy Agar (TSA) plates (Difco, Becton Dickinson, Sparks, Md., U.S.A.) and incubated at 37° C. for 12 to 18 hours. Broth cultures were prepared by first picking 1-2 isolated colonies from TSA plates and inoculating 5 mL Tryptic Soy Broth (TSB; Difco, Becton Dickinson, Sparks, Md., U.S.A.) in a 16 mm test tube. This culture was grown in a shaking water bath at 150 RPM for 8 hours at 37° C. After the eight hours, 125 μL of this culture was added to 50 mL of TSB in a side-arm Klett flask and grown for approximately 8 hours in shaking water bath (150 RPM) at 37° C. The bacterial broths were grown to an A590 of 1.2-1.5, which correlated to approximately 10^9 CFU (colony forming units)/mL. 25 mL of this broth were transferred to a sterile 30 mL Oakridge tube and centrifuged at 12,000×g for 10 minutes at 4° C. (Sorval SS34 rotor) to pelletize the bacteria. The bacterial pellet was washed once and resuspended in 25 mL of phosphate buffer solution (PBS; BBL, FTA Hemaglutination Buffer, Becton Dickinson, Sparks, Md., U.S.A.). The suspension was diluted with PBS to achieve the target range of 10^5-10^6 CFU/mL and used to inoculate the slides containing antibacterial coatings.
# Xylene/methanol (5:1 by weight) is used to dissolve the silver surfactants to facilitate homogeneously mixing with the alkyd resin composition.
# A minus sign (−) denotes no growth, a plus sign (+) denotes confluent growth, and a capital P (P) denotes […].
# Xylene/methanol (5:1 by weight) is used to dissolve the silver surfactants to facilitate homogeneously mixing with the acrylic resin composition.
# The same laboratory experimental solvent based acrylic paint described in Example 34 is used to challenge E. coli by adding various levels of the invention silver anionic surfactants as described in Example 34.
# A commercially available 2K epoxy resin paint is obtained from a local paint store (Sherwin Williams High Solids Epoxy Tile Clad HS; Part A B62WC11; Part B B60VZ75, The Sherwin Williams Company) and the same silver anionic surfactants described in Example 35 are used to prepare test coatings on microscope slides containing various levels of silver ion. These surfactants are dissolved in xylene/methanol (5:1 by weight) to facilitate their quantitative addition to the coating mixture.
# [5] = system: S. aureus; format: cell-based, Staphylococcus aureus; settings: laboratory acrylic clearcoat, 24 h contact time
# Source text: A laboratory experimental solvent based acrylic paint is formulated and then used to challenge S. aureus by adding various levels of the invention silver anionic surfactants as described in Example 33. A binder is made by solution polymerization of butyl acrylate (25% w/w), methylmethacrylate (73.5% w/w), and methacrylic acid (1.5% w/w) in amylacetate using thermal initiation. This solution polymer is then used to make a 60% solids clearcoat binder in xylene/methanol (5:1 by weight). The silver anionic surfactants are dissolved in this same xylene/methanol mixture prior to addition to the clearcoat.
# [6] = after 12 and 24 hours of exposure, polyurethane coated slides
compound,measurement,setting,value
"CCCCC(CC)COC(=O)CC(C(=O)OCC(CC)CCCC)S(=O)(=O)[O-].[Na+] (stereo not shown) [NaAOT, Sodium bis(2-ethylhexyl)sulfosuccinate]",Effect on Serratia marcescens,[1],except for Serratia marcescens
same,Killing of B. subtilis,[2]; [6],killed all
same,CFU/mL B. subtilis,[2]; exposure 12 hours,0 CFU/mL
same,CFU/mL B. subtilis,[2]; exposure 24 hours,0 CFU/mL
same,Killing of S. aureus,[3]; [6],killed all
same,CFU/mL S. aureus,[3]; exposure 12 hours,0 CFU/mL
same,CFU/mL S. aureus,[3]; exposure 24 hours,0 CFU/mL
silver linearalkanebenzene sulfonate [AgLABS],E. coli growth on coating,"[4]; alkyd resin paint, 0.0012 weight % Ag in coating",+
same,E. coli growth on coating,"[4]; alkyd resin paint, 0.003 weight % Ag in coating",+
same,E. coli growth on coating,"[4]; alkyd resin paint, 0.006 weight % Ag in coating",+
same,E. coli growth on coating,"[4]; alkyd resin paint, 0.012 weight % Ag in coating",+
same,E. coli growth on coating,"[4]; alkyd resin paint, 0.03 weight % Ag in coating",−
same,E. coli growth on coating,"[4]; alkyd resin paint, 0.06 weight % Ag in coating",−
same,E. coli growth on coating,"[4]; alkyd resin paint, 0.12 weight % Ag in coating",−
same,E. coli growth on coating,"[4]; commercial 2K epoxy paint, 0.0012 weight % Ag in coating",+
same,E. coli growth on coating,"[4]; commercial 2K epoxy paint, 0.003 weight % Ag in coating",+
same,E. coli growth on coating,"[4]; commercial 2K epoxy paint, 0.006 weight % Ag in coating",+
same,E. coli growth on coating,"[4]; commercial 2K epoxy paint, 0.012 weight % Ag in coating",+
same,E. coli growth on coating,"[4]; commercial 2K epoxy paint, 0.03 weight % Ag in coating",−
same,E. coli growth on coating,"[4]; commercial 2K epoxy paint, 0.06 weight % Ag in coating",−
same,E. coli growth on coating,"[4]; commercial 2K epoxy paint, 0.12 weight % Ag in coating",−
same,Silver level giving complete inhibition of growth,[4]; commercial 2K epoxy paint,0.03 % w/w
same,E. coli growth on coating,"[4]; commercial solvent borne acrylate paint, 0.0012 weight % Ag in coating",+
same,E. coli growth on coating,"[4]; commercial solvent borne acrylate paint, 0.003 weight % Ag in coating",+
same,E. coli growth on coating,"[4]; commercial solvent borne acrylate paint, 0.006 weight % Ag in coating",+
same,E. coli growth on coating,"[4]; commercial solvent borne acrylate paint, 0.012 weight % Ag in coating",+
same,E. coli growth on coating,"[4]; commercial solvent borne acrylate paint, 0.06 weight % Ag in coating",−
same,E. coli growth on coating,"[4]; commercial solvent borne acrylate paint, 0.12 weight % Ag in coating",−
same,Silver level partially effective,[4]; commercial solvent borne acrylic paint,0.03 % Ag w/w
same,Silver level with partial inhibition,[4]; laboratory solvent based acrylic paint,0.03%
same,E. coli growth on coating,"[4]; laboratory solvent borne acrylate paint, 0.0012 weight % Ag in coating",+
same,E. coli growth on coating,"[4]; laboratory solvent borne acrylate paint, 0.003 weight % Ag in coating",+
same,E. coli growth on coating,"[4]; laboratory solvent borne acrylate paint, 0.006 weight % Ag in coating",+
same,E. coli growth on coating,"[4]; laboratory solvent borne acrylate paint, 0.012 weight % Ag in coating",+
same,E. coli growth on coating,"[4]; laboratory solvent borne acrylate paint, 0.06 weight % Ag in coating",−
same,E. coli growth on coating,"[4]; laboratory solvent borne acrylate paint, 0.12 weight % Ag in coating",−
same,Silver level with partial growth,[5],0.012 % Ag w/w and 0.006 % Ag w/w
